How the values were obtained:
Format in all cases: in vivo
Settings in all cases: evaluated after 13 days
[1] = tested on: Amaranthus retoflexus (AMARE); assay: Pre-emergence herbicidal glasshouse test, Amaranthus retoflexus (AMARE)
Protocol: (§1) Seeds of a variety of test species are sown in standard soil in pots (Lolium perenne (LOLPE), Amaranthus retoflexus (AMARE), Abutilon theophrasti (ABUTH), Setaria faberi (SETFA), Echinochloa crus-galli (ECHCG), Ipomoea hederacea (IPOHE)). After cultivation for one day (pre-emergence) or after 8 days cultivation (post-emergence) under controlled conditions in a glasshouse (at 24/16° C., day/night; 14 hours light; 65% humidity), the plants are sprayed with an aqueous spray solution derived from the formulation of the technical active ingredient in acetone/water (50:50) solution containing 0.5% Tween 20 (polyoxyethelyene sorbitan monolaurate, CAS RN 9005-64-5). Compounds are applied at 500 g/h unless otherwise indicated. The test plants are then grown in a glasshouse under controlled conditions in a glasshouse (at 24/16° C., day/night; 14 hours light; 65% humidity) and watered twice daily. After 13 days for pre and post-emergence, the test is evaluated for the percentage damage caused to the plant. The biological activities are shown in the following table on a five point scale (5=80-100%; 4=60-79%; 3=40-59%; 2=20-39%; 1=0-19%).

[2] = tested on: Abutilon theophrasti (ABUTH); assay: Pre-emergence herbicidal glasshouse test, Abutilon theophrasti (ABUTH)
Protocol: as §1

Setaria faberi (SETFA) [3] = assay: Pre-emergence herbicidal glasshouse test, Setaria faberi (SETFA)
Protocol: as §1

[4] = tested on: Echinochloa crus-galli (ECHCG); assay: Pre-emergence herbicidal glasshouse test, Echinochloa crus-galli (ECHCG)
Protocol: as §1

[5] = tested on: Ipomoea hederacea (IPOHE); assay: Pre-emergence herbicidal glasshouse test, Ipomoea hederacea (IPOHE)
Protocol: as §1

[6] = tested on: Amaranthus retoflexus (AMARE); assay: Post-emergence herbicidal glasshouse test, Amaranthus retoflexus (AMARE)
Protocol: as §1

[7] = tested on: Abutilon theophrasti (ABUTH); assay: Post-emergence herbicidal glasshouse test, Abutilon theophrasti (ABUTH)
Protocol: as §1

Setaria faberi (SETFA) [8] = assay: Post-emergence herbicidal glasshouse test, Setaria faberi (SETFA)
Protocol: as §1

[9] = tested on: Echinochloa crus-galli (ECHCG); assay: Post-emergence herbicidal glasshouse test, Echinochloa crus-galli (ECHCG)
Protocol: as §1

[10] = tested on: Ipomoea hederacea (IPOHE); assay: Post-emergence herbicidal glasshouse test, Ipomoea hederacea (IPOHE)
Protocol: as §1

Compound	PRE Application AMARE, percentage damage (five point scale) ([1]; 500 g/h)	PRE Application ABUTH, percentage damage (five point scale) ([2]; 500 g/h)	PRE Application SETFA, percentage damage (five point scale) (Setaria faberi (SETFA) [3]; 500 g/h)	PRE Application ECHCG, percentage damage (five point scale) ([4]; 500 g/h)	PRE Application IPOHE, percentage damage (five point scale) ([5]; 500 g/h)	POST Application AMARE, percentage damage (five point scale) ([6]; 500 g/h)	POST Application ABUTH, percentage damage (five point scale) ([7]; 500 g/h)	POST Application SETFA, percentage damage (five point scale) (Setaria faberi (SETFA) [8]; 500 g/h)	POST Application ECHCG, percentage damage (five point scale) ([9]; 500 g/h)	POST Application IPOHE, percentage damage (five point scale) ([10]; 500 g/h)	PRE Application AMARE, percentage damage (five point scale) ([1]; applied at 250 g/ha)	PRE Application ABUTH, percentage damage (five point scale) ([2]; applied at 250 g/ha)	PRE Application SETFA, percentage damage (five point scale) (Setaria faberi (SETFA) [3]; applied at 250 g/ha)	PRE Application ECHCG, percentage damage (five point scale) ([4]; applied at 250 g/ha)	PRE Application IPOHE, percentage damage (five point scale) ([5]; applied at 250 g/ha)	POST Application AMARE, percentage damage (five point scale) ([6]; applied at 250 g/ha)	POST Application ABUTH, percentage damage (five point scale) ([7]; applied at 250 g/ha)	POST Application SETFA, percentage damage (five point scale) (Setaria faberi (SETFA) [8]; applied at 250 g/ha)	POST Application ECHCG, percentage damage (five point scale) ([9]; applied at 250 g/ha)	POST Application IPOHE, percentage damage (five point scale) ([10]; applied at 250 g/ha)
Cn1nnnc1NC(=O)c1ccc(C(F)(F)F)c(/N=C/N2CCCC2)c1Cl [Compound 1.132, 2-chloro-N-(1-methyltetrazol-5-yl)-3-[(E)-pyrrolidin-1-ylmethyleneamino]-4-(trifluoromethyl)benzamide]	5 (5=80-100%)	5 (5=80-100%)	5 (5=80-100%)	5 (5=80-100%)	5 (5=80-100%)	5 (5=80-100%)	5 (5=80-100%)	5 (5=80-100%)	5 (5=80-100%)	5 (5=80-100%)	–	–	–	–	–	–	–	–	–	–
Cn1nnnc1NC(=O)c1ccc(C(F)(F)F)c(N=CN2CCOCC2)c1Cl [Compound 1.135]	–	–	–	–	–	–	–	–	–	–	5 (5=80-100%)	5 (5=80-100%)	5 (5=80-100%)	5 (5=80-100%)	5 (5=80-100%)	5 (5=80-100%)	5 (5=80-100%)	5 (5=80-100%)	3 (3=40-59%)	5 (5=80-100%)
CN(C)C(=Nc1c(C(F)(F)F)ccc(C(=O)Nc2nnnn2C)c1Cl)C(F)(F)F [Compound 1.139]	5 (5=80-100%)	5 (5=80-100%)	5 (5=80-100%)	5 (5=80-100%)	5 (5=80-100%)	5 (5=80-100%)	5 (5=80-100%)	5 (5=80-100%)	5 (5=80-100%)	4 (4=60-79%)	–	–	–	–	–	–	–	–	–	–
CC(C)N(C)C=Nc1c(C(F)(F)F)ccc(C(=O)Nc2nnnn2C)c1Cl [Compound 1.140]	5 (5=80-100%)	5 (5=80-100%)	5 (5=80-100%)	5 (5=80-100%)	5 (5=80-100%)	5 (5=80-100%)	5 (5=80-100%)	5 (5=80-100%)	5 (5=80-100%)	5 (5=80-100%)	–	–	–	–	–	–	–	–	–	–

Reference: US11272709B2, “Amidine substituted benzoyl derivatives useful as herbicides” (Syngenta Participations AG, priority 2018, dated 2022)
